Laboratory results reported in BindingDB's records for doi:10.1021/acs.jmedchem.7b00359 (AstraZeneca, 2017).
pIC50: −log10 of the molar value.

Assays:
[1] = target: T1, Zinc finger and BTB domain-containing protein 16 (Homo sapiens, UniProt Q05516); assay: (§1) Inhibition of GAL4 DNA binding domain fused PLZF BTB domain (unknown origin) expressed in HEK 293T/17 cells after 24 hrs by Bright-Glo luciferase cell reporter assay
T1 sequence (Q05516 whole entry): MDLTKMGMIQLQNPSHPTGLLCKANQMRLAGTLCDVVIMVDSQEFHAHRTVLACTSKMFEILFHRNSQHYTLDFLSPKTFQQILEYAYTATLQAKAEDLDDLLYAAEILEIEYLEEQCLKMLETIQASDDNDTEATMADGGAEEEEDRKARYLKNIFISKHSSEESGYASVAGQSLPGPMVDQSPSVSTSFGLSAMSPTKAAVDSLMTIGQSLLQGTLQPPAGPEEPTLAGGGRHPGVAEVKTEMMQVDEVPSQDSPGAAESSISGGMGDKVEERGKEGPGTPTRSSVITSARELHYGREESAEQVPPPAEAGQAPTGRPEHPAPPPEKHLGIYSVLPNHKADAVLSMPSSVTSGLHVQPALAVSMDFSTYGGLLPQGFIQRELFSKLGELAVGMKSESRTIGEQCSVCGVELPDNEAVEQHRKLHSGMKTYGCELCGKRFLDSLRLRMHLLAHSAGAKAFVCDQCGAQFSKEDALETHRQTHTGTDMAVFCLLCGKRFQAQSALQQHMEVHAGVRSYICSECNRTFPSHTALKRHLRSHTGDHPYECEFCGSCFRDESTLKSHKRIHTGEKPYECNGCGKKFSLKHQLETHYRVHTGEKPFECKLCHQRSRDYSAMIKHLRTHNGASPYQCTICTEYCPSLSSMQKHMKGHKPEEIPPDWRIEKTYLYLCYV

[2] = target: T1, Zinc finger and BTB domain-containing protein 16; assay: ChEBML_1665992; text: as §1

SMILES	pIC50 [1]	pIC50 [2]
O=C1CCc2cc3cc(c2N1Cc1ccccc1)OC/C=C/CO[C@H]1C[C@@H](CO)N(C1)c1cc(n2ncc(Cl)c2n1)N3	< 4.52	–
COc1cccc(CN2C(=O)CCc3cc4cc(c32)OC/C=C/CO[C@H]2C[C@@H](CO)N(C2)c2cc(n3ncc(C#N)c3n2)N4)c1	< 4.52	–
O=C1CCc2cc3cc(c2N1)OC/C=C/CO[C@H]1C[C@@H](CO)N(C1)c1cc(n2ncc(Cl)c2n1)N3	< 4.52	–
N#Cc1cnn2c3cc(nc12)N1C[C@H](C[C@H]1CO)OCCCCOc1cc(cc2c1NC(=O)CC2)N3	< 4.52	–
CN1C(=O)CCc2cc3cc(c21)OC/C=C/CO[C@H]1C[C@@H](CO)N(C1)c1cc(n2ncc(Cl)c2n1)N3	< 4.52	–
Cc1ccc(CN2C(=O)CCc3cc4cc(c32)OC/C=C/CO[C@H]2C[C@@H](CO)N(C2)c2cc(n3ncc(Cl)c3n2)N4)cc1	< 4.52	–
O=C1CCc2cc3cc(c2N1CC1CC1)OC/C=C/CO[C@H]1C[C@@H](CO)N(C1)c1cc(n2ncc(Cl)c2n1)N3	< 4.52	–
O=C1CCc2cc3cc(c2N1Cc1ccncc1)OC/C=C/CO[C@H]1C[C@@H](CO)N(C1)c1cc(n2ncc(Cl)c2n1)N3	< 4.52	–
N#Cc1cnn2c3cc(nc12)N1C[C@H](C[C@H]1CO)OC/C=C/COc1cc(cc2c1NC(=O)CC2)N3	–	< 4.52
N#Cc1cnn2c3cc(nc12)N1CC[C@@H](C1)OCCCCOc1cc(cc2c1NC(=O)CC2)N3	< 4.52	–
O=C1CCc2cc3cc(c2N1)OCCCCO[C@H]1C[C@@H](CO)N(C1)c1cc(n2ncc(Cl)c2n1)N3	< 4.52	–
O=C1CCc2cc3cc(c2N1)OCCCCO[C@H]1C[C@@H](CO)N(C1)c1cc(n2nccc2n1)N3	< 4.52	–
O=C(O)C[C@@H]1C[C@H]2CN1c1cc(n3ncc(Cl)c3n1)Nc1cc3c(c(c1)OC/C=C/CO2)N(CC1CC(F)(F)C1)C(=O)CC3	< 4.52	–
O=C1CCc2cc3cc(c2N1CCCN1CCOCC1)OC/C=C/CO[C@H]1C[C@@H](CO)N(C1)c1cc(n2ncc(Cl)c2n1)N3	< 4.52	–
O=C1CCc2cc3cc(c2N1CC1CC(F)(F)C1)OC/C=C/CO[C@H]1C[C@@H](CO)N(C1)c1cc(n2ncc(Cl)c2n1)N3	< 4.52	–
Cc1ccccc1CN1C(=O)CCc2cc3cc(c21)OC/C=C/CO[C@H]1C[C@@H](CO)N(C1)c1cc(n2ncc(Cl)c2n1)N3	< 4.52	–
COc1cccc(CN2C(=O)CCc3cc4cc(c32)OC/C=C/CO[C@H]2C[C@@H](CO)N(C2)c2cc(n3ncc(Cl)c3n2)N4)c1	< 4.52	–
